Laboratory results published in US9242984B2, “Pyrazolyl derivatives as Syk inhibitors” (Merck Sharp & Dohme Corp., priority 2012, dated 2016).
Read-outs that look alike come from different tables or passages of the source.

Molecular target: T1, recombinant human Syk (GST-hSyk fusion protein) (Homo sapiens, UniProt P43405)
T1 construct: purchased Carna Biosciences 08-176
Test: Homogeneous Time-Resolved Fluorescence (HTRF) assay for the recombinant human Syk enzyme
Format: biochemical
Details: 10-dose titration, 25 μM ATP
Method in brief: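 IC50 came from a four-parameter fit over ten doses, 10 μM to 0.508 nM, with HTRF read-out (Eu-anti-pTyr antibody, SA-APC, EDTA stop, 30 min). The enzyme, 5 pM GST-hSyk, met compound for 10 min, then phosphorylated 250 nM biotin-peptide with 25 μM ATP and 5 mM Mg for 45 min at room temperature, pH 7.5.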

[1] = IC50 class, read-out: rhSYK Activity

Molecule	IC50 [1]	IC50 (read-out: rhSYK IC50)
Cc1cc(Nc2nccc(C(C)(F)F)n2)cc(-c2cnn(CC3OC(=O)NC3C)c2)c1 (single isomer, unassigned) [Example 23.12, 5-{[4-(3-{[4-(1,1-difluoroethyl)pyrimidin-2-yl]amino}-5-methylphenyl)-1H-pyrazol-1-yl]methyl}-4-methyl-1,3-oxazolidin-2-one]	≤ 100 nM	
COc1nc(Nc2cc(C)cc(-c3cnn(C[C@](C)(O)CO)c3)c2)ncc1Cl [Example 2.98, (2S)-3-(4-{3-[(5-chloro-4-methoxypyrimidin-2-yl)amino]-5-methylphenyl}-1H-pyrazol-1-yl)-2-methylpropane-1,2-diol]	≤ 100 nM	
Cc1ccnc(Nc2cccc(-c3cnn(CC4CNC(=O)O4)c3)c2)n1 (centres unmarked) [Example 2.20, 5-[(4-{3-[(4-methylpyrimidin-2-yl)amino]phenyl}-1H-pyrazol-1-yl)methyl]-1,3-oxazolidin-2-one]	≤ 100 nM	
Cc1cc(Nc2nccc(C(F)(F)F)n2)cc(-c2cnn(CCCN)c2)c1 [Example 3.20, N-{3-[1-(3-aminopropyl)-1H-pyrazol-4-yl]-5-methylphenyl}-4-(trifluoromethyl)pyrimidin-2-amine]	≤ 100 nM	
Cc1cc(Nc2nccc(C(F)(F)F)n2)cc(-c2cnn(CC(=O)NC(C)(C)C)c2)c1 [Example 3.8, N-tert-butyl-2-[4-(3-methyl-5-{[4-(trifluoromethyl)pyrimidin-2-yl]amino}-phenyl)-1H-pyrazol-1-yl]acetamide]	≤ 100 nM	
Cc1cc(Nc2nccc(C(F)(F)F)n2)cc(-c2cnn(CC(N)=O)c2)c1 [Example 3.37, 2-[4-(3-methyl-5-{[4-(trifluoromethyl)pyrimidin-2-yl]amino}-phenyl)-1H-pyrazol-1-yl]acetamide]	≤ 100 nM	
Cc1cc(Nc2cc(C(F)(F)F)ccn2)nc(-c2cnn(CCC(C)C)c2)c1 [Example 1.14, 4-methyl-6-[1-(3-methylbutyl)-1H-pyrazol-4-yl]-N-[4-(trifluoromethyl)pyridin-2-yl]pyridin-2-amine]	≤ 100 nM	
Cc1cc(Nc2nccc(C(F)(F)F)n2)cc(-c2cnn(CC(O)COc3ccccc3)c2)c1 (centres unmarked) [Example 5.8, 1-[4-(3-methyl-5-{[4-(trifluoro-methyl)pyrimidin-2-yl]amino}-phenyl)-1H-pyrazol-1-yl]-3-phenoxypropan-2-ol]	100 to 1000 nM	
Cc1cc(Nc2ncccn2)cc(-c2cnn(CC3CNC(=O)O3)c2)c1 (centres unmarked) [Example 3.116, 5-({4-[3-methyl-5-(pyrimidin-2-ylamino)phenyl]-1H-pyrazol-1-yl}methyl)-1,3-oxazolidin-2-one]	≤ 100 nM	
Cc1cc(Nc2nccc(C(F)F)n2)cc(-c2cnn(CC(O)C(C)C)c2)c1 (centres unmarked) [Example 5.23, 1-[4-(3-{[4-(difluoromethyl)pyrimidin-2-yl]amino}-5-methylphenyl)-1H-pyrazol-1-yl]-3-methylbutan-2-ol]	≤ 100 nM	
Cc1cc(Nc2nccc(C(F)(F)F)n2)cc(-n2cc(C3(O)CCC(C(=O)O)C(C)(C)C3)cn2)c1 (centres unmarked) [Example 19.14, 4-hydroxy-2,2-dimethyl-4-[1-(3-methyl-5-{[4-(trifluoromethyl)pyrimidin-2-yl]amino}phenyl)-1H-pyrazol-4-yl]cyclohexanecarboxylic acid]	100 to 1000 nM	
Cc1cc(Nc2nccc(C(F)F)n2)cc(-c2cnn(CCc3cn[nH]c3)c2)c1 [Example 3.111, 4-(difluoromethyl)-N-(3-methyl-5-{1-[2-(1H-pyrazol-4-yl)ethyl]-1H-pyrazol-4-yl}phenyl)pyrimidin-2-amine]	≤ 100 nM	
CCNC(=O)NCCn1cc(-c2cc(C)cc(Nc3nccc(C(F)F)n3)c2)cn1 [Example 27.16, 1-{2-[4-(3-{[4-(difluoromethyl)pyrimidin-2-yl]amino}-5-methylphenyl)-1H-pyrazol-1-yl]ethyl}-3-ethylurea]	≤ 100 nM	
Cc1cc(Nc2nccc(C(F)(F)F)n2)cc(-c2cnn(C(C)C(N)=O)c2)c1 (centres unmarked) [Example 8.20, 2-[4-(3-methyl-5-{[4-(trifluorometh-yl)pyrimidin-2-yl]amino}phenyl)-1H-pyrazol-1-yl]propanamide]	≤ 100 nM	
Cc1cc(Nc2nccc(C(F)F)n2)cc(-c2cnn(Cc3c[nH]cn3)c2)c1 [Example 3.110, 4-(difluoromethyl)-N-{3-[1-(1H-imidazol-4-ylmethyl)-1H-pyrazol-4-yl]-5-methylphenyl}pyrimidin-2-amine]	≤ 100 nM	
Cc1cc(Nc2nccc(C3CC3)n2)cc(-c2cnn(CC3CNC(=O)O3)c2)c1 (centres unmarked) [Example 2.33, 5-[(4-{3-[(4-cyclopropylpyrimidin-2-yl)amino]-5-methylphenyl}-1H-pyrazol-1-yl)methyl]-1,3-oxazolidin-2-one]	≤ 100 nM	
5-{[4-(3-{[4-(1,1-difluoromethyl)pyrimidin-2-yl]amino}-5-methylphenyl)-1H-pyrazol-1-yl]methyl}-4-methyl-1,3-oxazolidin-2-one [Example 23.11]	≤ 100 nM	

Molecule	IC50 [1]	IC50 (read-out: rhSYK IC50)
Cc1cc(Nc2nccc(C(C)O)n2)cc(-c2cnn(C[C@](C)(O)CO)c2)c1 (stereo partly drawn) [Example 2.87, (2S)-3-[4-(3-{[4-(1-hydroxyethyl)pyrimidin-2-yl]amino}-5-methylphenyl)-1H-pyrazol-1-yl]-2-methylpropane-1,2-diol]	≤ 100 nM	
C[C@@](O)(CO)Cn1cc(-c2cccc(Nc3nccc(C(F)(F)F)n3)c2)cn1 [Example 2.86, (2S)-2-methyl-3-[4-(3-{[4-(trifluoromethyl)pyrimidin-2-yl]amino}phenyl)-1H-pyrazol-1-yl]propane-1,2-diol]	≤ 100 nM	
CCOC(Cn1cc(-c2cc(C)cc(Nc3nccc(C(F)(F)F)n3)c2)cn1)OCC [Example 3.23, N-{3-[1-(2,2-diethoxyethyl)-1H-pyrazol-4-yl]-5-methylphenyl}-4-(trifluoromethyl)pyrimidin-2-amine]	100 to 1000 nM	
Cc1cc(Nc2nccc(C(F)(F)F)n2)cc(-c2cnn(C(C)C(C)(O)CO)c2)c1 (single isomer, unassigned) [Example 21.11, 2-methyl-3-[4-(3-methyl-5-{[4-(trifluoromethyl)pyrimidin-2-yl]amino}phenyl)-1H-pyrazol-1-yl]butane-1,2-diol]	≤ 100 nM	
Cc1cc(Nc2nccc(C(F)(F)F)n2)cc(-c2cc[nH]n2)c1 [Example 1.7, N-[3-methyl-5-(1H-pyrazol-3-yl)phenyl]-4-(trifluoromethyl)pyrimidin-2-amine]	≤ 100 nM	
4-{[4-(4-methyl-6-{[4-(trifluoromethyl)pyridin-2-yl]amino}pyridin-2-yl)-1H-pyrazol-1-yl]-methyl}pyrrolidin-2-one [Example 1.38]	≤ 100 nM	
Cc1cc(Nc2nccc(C(F)(F)F)n2)cc(-c2cnn(C[C@@H](O)C(N)=O)c2)c1 [Example 8.2, (2R)-2-hydroxy-3-[4-(3-methyl-5-{[4-(trifluorometh-yl)pyrimidin-2-yl]amino}phenyl)-1H-pyrazol-1-yl]propanamide]	≤ 100 nM	
COCCCNC(=O)[C@@H](O)Cn1cc(-c2cc(C)cc(Nc3nccc(C(F)(F)F)n3)c2)cn1 [Example 6.12, (2S)-2-hydroxy-N-(3-methoxypropyl)-3-[4-(3-methyl-5-{[4-(trifluorometh-yl)pyrimidin-2-yl]amino}phenyl)-1H-pyrazol-1-yl]propanamide]	≤ 100 nM	
Cc1ccnc(Nc2cccc(-n3cc(CCC(=O)O)cn3)n2)c1 [Example 18.2, 3-(1-{6-[(4-methylpyridin-2-yl)amino]pyridin-2-yl}-1H-pyrazol-4-yl)propanoic acid]	100 to 1000 nM	
Cc1cc(Nc2nccc(C(F)F)n2)cc(-c2cnn(CC3CC(=O)NC34CC4)c2)c1 (centres unmarked) [Example 3.90, 7-{[4-(3-{[4-(difluoromethyl)pyrimidin-2-yl]amino}-5-methylphenyl)-1H-pyrazol-1-yl]methyl}-4-azaspiro[2.4]heptan-5-one]	≤ 100 nM	
COc1ccnc(Nc2cccc(-c3cnn(C[C@H](O)C(=O)O)c3)c2)n1 [Example 11.4, (2S)-2-hydroxy-3-(4-{3-[(4-methoxy-pyrimidin-2-yl)-amino]phenyl}-1H-pyrazol-1-yl)-propanoic acid]	≤ 100 nM	
Cc1cc(Nc2nccc(C(F)F)n2)cc(-c2cnn(C(C)C(C)(O)CO)c2)c1 (single isomer, unassigned) [Example 22.2, 3-(4-(3-((4-(Difluoromethyl)pyrimidin-2-yl)amino)-5-methylphenyl)-1H-pyrazol-1-yl)-2-methylbutane-1,2-diol]	≤ 100 nM	
Cc1cc(Nc2cc(C3CC3)ccn2)nc(-n2cc(CCC(=O)O)cn2)c1 [Example 18.3, 3-(1-{6-[(4-cyclopropylpyridin-2-yl)amino]-4-methylpyridin-2-yl}-1H-pyrazol-4-yl)propanoic acid]	≤ 100 nM	
Cc1cc(Nc2nccc(C(F)(F)F)n2)cc(-n2cc(C3(O)CCC(C(=O)O)CC3)cn2)c1 (centres unmarked) [Example 19.11, 4-hydroxy-4-[1-(3-methyl-5-{[4-(trifluoromethyl)pyrimidin-2-yl]amino}phenyl)-1H-pyrazol-4-yl]cyclohexanecarboxylic acid]	≤ 100 nM	
Cc1cc(Nc2ncccn2)cc(-c2cnn(C(C)c3ccc(C(N)=O)cc3)c2)c1 (single isomer, unassigned) [Example 28.1, 4-(1-(4-(3-Methyl-5-(pyrimidin-2-ylamino)phenyl)-1H-pyrazol-1-yl)ethyl)benzamide]	≤ 100 nM	57.5 nM
Cc1cc(Nc2ncc(F)c(C(F)F)n2)cc(-c2cnn(CC(C)(O)CO)c2)c1 (single isomer, unassigned) [Example 25.10, 3-[4-(3-{[4-(difluoromethyl)-5-fluoropyrimidin-2-yl]amino}-5-methylphenyl)-1H-pyrazol-1-yl]-2-methylpropane-1,2-diol]	≤ 100 nM	
Cc1cc(Nc2nccc(C(F)(F)F)n2)cc(-c2cnn(C3CCC(C(N)=O)CC3)c2)c1 (centres unmarked) [Example 8.18, 4-[4-(3-methyl-5-{[4-(trifluorometh-yl)pyrimidin-2-yl]amino}phenyl)-1H-pyrazol-1-yl]-cyclohexane-carboxamide]	≤ 100 nM	
